The species named for assay [1] is Bos taurus. The assay can be described thus: Activity against bovine heart cAMP-dependent protein kinase.
The nature of assay [2]: Inhibition of bovine heart cAMP-dependent protein kinase (PKA). Also noted: species or system Bos taurus.
Assay [3] is filed under the species Bos taurus. Briefly: Affinity for bovine heart cAMP-dependent protein kinase.

Non-standard residues stand in square brackets, D forms with d. Residues, ends and D or L forms follow the SMILES beside them. *: point of attachment. Bpa = N[C@@H](Cc1ccc(C(=O)c2ccccc2)cc1)C(=O)O; Npys = O=[N+]([O-])c1cccnc1S*; X1 = CC(C)CCOC[C@H](CO)N*

With `CC(C)CCOC[C@H](CO)NC(=O)[C@H](C)NC(=O)[C@H](CCCN=C(N)N)NC(=O)[C@H](CCCN=C(N)N)NC(=O)[C@@H](N)CC(C)C` (H-LRRA-X1), the Vmax in assay [1] stood at 0.107 µM/min/mg. In addition, the inhibition constant Ki in assay [2] came to 120 µM. The Km in assay [3] amounted to 108 µM. In assay [2], `CC(C)C[C@H](NC(=O)[C@H](Cc1ccc(C(=O)c2ccccc2)cc1)NC(=O)[C@H](C)NC(=O)[C@H](CCCN=C(N)N)NC(=O)[C@H](CCCN=C(N)N)NC(=O)[C@@H](N)CC(C)C)C(=O)NCC(=O)O` (H-LRRA[Bpa]LG-OH) had a dissociation constant Kd of 110 µM. Same read-out and setting: the value for H-LRRAALG-OH was 490 µM; that for `CC(C)C[C@H](NC(=O)[C@H](CSSc1ncccc1[N+](=O)[O-])NC(=O)[C@H](C)NC(=O)[C@H](CCCN=C(N)N)NC(=O)[C@H](CCCN=C(N)N)NC(=O)[C@@H](N)CC(C)C)C(=O)NCC(=O)O` (H-LRRAC(Npys)LG-OH) was 40 µM. Take `CC(C)C[C@H](NC(=O)[C@H](CO)NC(=O)[C@H](C)NC(=O)[C@H](CCCNC(=N)N)NC(=O)[C@H](CCCNC(=N)N)NC(=O)[C@@H](N)CC(C)C)C(=O)NCC(=O)O` [KEMPTIDE]: the Kd in assay [2] is 250 µM. In assay [3], the Km was 4.6 µM and the maximal velocity (Vmax) was 0.38 µM/min/mg.

Values taken from ChEMBL document CHEMBL1159155, “An ether-based peptide analog as c-AMP-dependent protein kinase inhibitor/substrate” (Bioorg Med Chem Lett, 1994).
